As a reminder, the IC50 is the concentration needed to halve the response being measured.

This note sets out measurements from patent US9815836B2, “Macrocyclic compounds as IRAK1/4 inhibitors and uses thereof” (Merck Patent GmbH, priority 2015, dated 2017).

Series [1] addresses IRAK1 (Homo sapiens (Human), UniProt P51617). In words: IRAK1 enzymatic assay (ADP-Glo luminescence). It counts as biochemical. How it is done:
In this assay, IRAK1 hydrolyses ATP and autophosphorylates. Measurement of IRAK-1 inhibition is performed in 384-well format based on luminescence assay (ADP-Glo™ Kinase Assay from Promega). Purified human recombinant IRAK1 ([…]) and serial diluted compounds in DMSO (range of concentration from 10 μM to 0.5 nM) or controls (1% DMSO) are incubated for 15 minutes at RT in assay buffer containing 50 mM Hepes pH 7.0, Fatty acid-free BSA 0.1%, Dithiothreitol (DTT) 2 mM, MgCl2 10 mM, EGTA 0.5 mM, Triton X-100 0.01%. The kinase reaction is then initiated by the addition of ATP at a concentration of 1μM. After 2 hours of incubation at RT, the reaction is stopped and the unconsumed ATP depleted by the addition of ADP-Glo™ Reagent according to supplier instructions. After 40 minutes of incubation at RT, the Kinase Detection Reagent is then added to the assay plate according to supplier instructions. After 20 minutes of incubation at RT, the luminescence signal is measured with a luminometer (PerkinElmer Envision or equivalent reader).
(ADP-Glo first removes unused ATP, then detects ADP through luciferase.)

Series [2] has as its target IRAK4 (Homo sapiens (Human), UniProt Q9NWZ3). As to the kind of experiment: IRAK4 enzymatic assay (ADP-Glo luminescence). In kind it is biochemical. The following applies: human purified recombinant His-TEV-IRAK4 (1-460), ATP 2 μM, STK1-biotin peptide 300 nM. The method, then: IRAK4 is a human purified recombinant enzyme (His-TEV-IRAK4 (1-460)).
In this assay, IRAK4 hydrolyses ATP, autophosphorylates and phosphorylates a Serine/Threonine generic peptidic substrate (STK: 61ST1BLC from CisBio International). Measurement of IRAK-4 inhibition is performed in 384-well format based on a luminescence assay (ADP-Glo™ Kinase Assay from Promega). Purified human recombinant IRAK4 (0.3 μg/ml) and serial diluted compounds in DMSO (range of concentration from 10 μM to 0.5 nM) or controls (1% DMSO) are incubated for 15 minutes at RT in assay buffer containing 50 mM Hepes pH 7.0, Fatty acid-free BSA 0.1%, Dithiothreitol (DTT) 2 mM, MgCl2 10 mM, EGTA 0.5 mM, Triton X-100 0.01%, MnCl2 5 mM. The kinase reaction is then initiated by the addition of ATP (2 μM) and the peptidic substrate STK1-biotin peptide (300 nM). After 2 hours of incubation at RT, the reaction is stopped and the unconsumed ATP depleted by the addition of ADP-Glo™ Reagent according to supplier instructions. After 40 minutes of incubation at RT, the Kinase Detection Reagent is then added to the assay plate according to supplier instructions. After 20 minutes of incubation at RT, the luminescence signal is measured with a plate-reading luminometer (PerkinElmer Envision or equivalent reader).

[3] abbreviates: human purified recombinant His-TEV-IRAK1 (194-712), ATP 1 μM, read-out: IRAK1 IC50.

Structures are written as SMILES. Read-outs that look alike come from different tables or passages of the source.

Chain of IRAK4 (Q9NWZ3 whole entry): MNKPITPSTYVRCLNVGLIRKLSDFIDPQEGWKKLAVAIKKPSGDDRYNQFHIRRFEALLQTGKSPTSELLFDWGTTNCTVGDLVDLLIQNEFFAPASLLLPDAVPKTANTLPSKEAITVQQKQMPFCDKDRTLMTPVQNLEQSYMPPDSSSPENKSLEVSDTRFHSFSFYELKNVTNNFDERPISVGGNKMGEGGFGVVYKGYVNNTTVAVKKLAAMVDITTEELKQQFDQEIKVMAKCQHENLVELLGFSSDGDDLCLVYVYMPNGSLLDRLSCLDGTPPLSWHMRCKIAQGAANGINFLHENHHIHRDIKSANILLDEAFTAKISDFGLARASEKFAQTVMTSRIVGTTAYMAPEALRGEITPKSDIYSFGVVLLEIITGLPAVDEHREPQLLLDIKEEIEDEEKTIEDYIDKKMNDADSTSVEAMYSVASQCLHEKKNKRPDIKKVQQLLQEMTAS
Chain of IRAK1 (P51617 194-712): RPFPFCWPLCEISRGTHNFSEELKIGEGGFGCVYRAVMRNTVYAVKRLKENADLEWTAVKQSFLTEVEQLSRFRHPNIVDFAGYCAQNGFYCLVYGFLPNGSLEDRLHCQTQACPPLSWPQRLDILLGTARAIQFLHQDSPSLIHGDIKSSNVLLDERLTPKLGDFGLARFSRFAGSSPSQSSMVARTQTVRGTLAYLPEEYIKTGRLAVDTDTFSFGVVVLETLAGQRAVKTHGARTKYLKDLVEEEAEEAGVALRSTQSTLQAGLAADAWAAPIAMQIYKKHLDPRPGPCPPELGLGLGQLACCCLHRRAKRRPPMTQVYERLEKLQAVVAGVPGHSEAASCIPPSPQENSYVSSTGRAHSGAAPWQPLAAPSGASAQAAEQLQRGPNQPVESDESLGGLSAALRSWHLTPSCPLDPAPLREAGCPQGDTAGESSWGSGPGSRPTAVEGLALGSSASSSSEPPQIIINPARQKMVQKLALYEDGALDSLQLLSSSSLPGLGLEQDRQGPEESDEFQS

`Cn1cc(NC(=O)c2cccc(-c3cnn(CCCl)c3)n2)c(C(=O)NC2CCNC[C@H]2O)n1` (some centres unmarked): the ring closure, yield after HPLC (the molecule shown is the open-chain precursor, multicomponent bond, 20-membered ring, Cs2CO3/KI, microwave, DMSO, 22.0 mM, 110.0 °C) came out at 23.6%.
The compound `O=C1Nc2cn(C3CCOCC3)nc2C(=O)NCCOCCn2cc(cn2)-c2cccc1c2` [Compound 20, 15-(oxan-4-yl)-8-oxa-4,5,11,14,15,18-hexaazatetracyclo[18.3.1.1^2,^5.0^13,^1^7]pentacosa-1(23),2(25),3,13,16,20(24),21-heptaene-12,19-dione] displayed a ring closure, yield after HPLC (from NCCOCCn1cc(-c2cccc(C(=O)Nc3cn(C4CCOCC4)nc3C(=O)[O-])c2)cn1, amide bond, 17-membered ring, BOP/DIEA, DMF, 20.7 mM) of 21.8%. Also, the IC50 in series [1] (setting [3]) and in series [2] was above 5000 nM in each case.
Regarding `Cn1cc2c(n1)C(=O)NC1CCN(CC1O)C(=O)OCCn1cc(cn1)-c1cccc(n1)C(=O)N2` (centres unmarked) [Compound 21, 26-hydroxy-6-methyl-22-oxa-2,5,6,9,18,19,24,30-octaazapentacyclo[22.2.2.1^11,^1^5.1^1^6,^1^9.0^4,^8]triaconta-4,7,11(30),12,14,16(29),17-heptaene-3,10,23-trione], the figures for the IC50 in series [1] and in series [2] were 1000 to 5000 nM and 100 to 1000 nM, respectively.
On the same counts, the results for `O=C1Nc2cn(C3CCN(CCO)CC3)nc2C(=O)NCCCCCCn2cc(cn2)-c2cccc1n2` [Compound 22, 16-[1-(2-hydroxyethyl)piperidin-4-yl]-4,5,12,15,16,19,25-heptaazatetracyclo[19.3.1.1^2,^5.0^1^4,^1^8]hexacosa-1 (24),2(26),3,14,17,21(25),22-heptaene-13,20-dione] are 100 to 1000 nM and below 100 nM.
On the same counts, the results for `CN(C)CCN1CCC(n2cc3c(n2)C(=O)NCCCCCCn2cc(cn2)-c2cccc(n2)C(=O)N3)CC1` [Compound 23, 6-{1-[2-(dimethylamino)ethyl]piperidin-4-yl}-4,5,12,15,16,19,25-heptaazatetracyclo[19.3.1.1^2,^5.0^1^4,^1^8]hexacosa-1(24),2(26),3,14,17,21(25),22-heptaene-13,20-dione] are 100 to 1000 nM and below 100 nM.
The corresponding values for `O=C1Nc2cn(C3CCOCC3)nc2C(=O)NCCCCCCn2cc(cn2)-c2cccc1c2` [Compound 24, 16-(oxan-4-yl)-4,5,12,15,16,19-hexaazatetracyclo[19.3.1.1^2,^5.0^1^4,^1^8]hexacosa-1(24),2(26),3,14,17,21 (25),22-heptaene-13,20-dione] are 100 to 1000 nM and below 100 nM.
For `Cn1cc2c(n1)C(=O)NCCC/C=C/Cn1cc(cn1)-c1cccc(n1)C(=O)N2` [Compound 25, (7E)-16-methyl-4,5,12,15,16,19,25-heptaazatetracyclo[19.3.1.1^2,^5.0^1^4,^1^8]hexacosa-1(24),2(26),3,7,14,17,21(25),22-octaene-13,20-dione], the IC50 in series [1] (setting [3]) and in series [2] was below 100 nM in each case.
`Cn1cc2c(n1)C(=O)NCC/C=C\CCn1cc(cn1)-c1cccc(n1)C(=O)N2` [Compound 27, (8Z)-16-methyl-4,5,12,15,16,19,25-heptaazatetracyclo[19.3.1.1^2,^5.0^1^4,^1^8]hexacosa-1(24),2(26),3,8,14,17,21(25),22-octaene-13,20-dione]: the IC50 in series [1] is 100 to 1000 nM; in series [2], below 100 nM.
On the same counts, the results for `Cn1cc2c(n1)C(=O)NCC/C=C/CCn1cc(cn1)-c1cccc(n1)C(=O)N2` [Compound 28, (8E)-16-methyl-4,5,12,15,16,19,25-heptaazatetracyclo[19.3.1.1^2,^5.0^1^4,^1^8]hexacosa-1(24),2(26),3,8,14,17,21(25),22-octaene-13,20-dione] are 100 to 1000 nM and below 100 nM.
The corresponding values for `Cn1cc2c(n1)C(=O)NC/C=C/CCCn1cc(cn1)-c1cccc(n1)C(=O)N2` [Compound 29, (9E)-16-methyl-4,5,12,15,16,19,25-heptaazatetracyclo[19.3.1.1^2,^5.0^1^4,^1^8]hexacosa-1(24),2(26),3,9,14,17,21(25),22-octaene-13,20-dione] are 100 to 1000 nM and below 100 nM.
On the same counts, the results for `Cn1cc2c(n1)C(=O)NC/C=C\CCCn1cc(cn1)-c1cccc(n1)C(=O)N2` [Compound 30, (9Z)-16-methyl-4,5,12,15,16,19,25-heptaazatetracyclo[19.3.1.1^2,^5.0^1^4,^1^8]hexacosa-1(24),2(26),3,9,14,17,21(25),22-octaene-13,20-dione] are 100 to 1000 nM and below 100 nM.
As to `Cn1cc2c(n1)C(=O)NCC(O)C(O)CCCn1cc(cn1)-c1cccc(n1)C(=O)N2` (centres unmarked) [Compound 31, 9,10-dihydroxy-16-methyl-4,5,12,15,16,19,25-heptaazatetracyclo[19.3.1.1^2,^5.0^1^4,^1^8]hexacosa-1(24),2(26),3,14,17,21(25),22-heptaene-13,20-dione], the figures for the IC50 in series [1] and in series [2] were 100 to 1000 nM and below 100 nM, respectively.
On the same counts, the results for `Cn1cc2c(n1)C(=O)NCCCC(O)C(O)Cn1cc(cn1)-c1cccc(n1)C(=O)N2` (centres unmarked) [Compound 32, 7,8-dihydroxy-16-methyl-4,5,12,15,16,19,25-heptaazatetracyclo[19.3.1.1^2,^5.0^1^4,^1^8]hexacosa-1(24),2(26),3,14,17,21(25),22-heptaene-13,20-dione] are 100 to 1000 nM and below 100 nM.
On the same counts, the results for `Cn1cc2c(n1)C(=O)NCCC(O)C(O)CCn1cc(cn1)-c1cccc(n1)C(=O)N2` (centres unmarked) [Compound 33, 8,9-dihydroxy-16-methyl-4,5,12,15,16,19,25-heptaazatetracyclo[19.3.1.1^2,^5.0^1^4,^1^8]hexacosa-1(24),2(26),3,14,17,21(25),22-heptaene-13,20-dione] are 100 to 1000 nM and below 100 nM.
The corresponding values for `Cn1cc2c(n1)C(=O)NCCC/C=C\Cn1cc(cn1)-c1cccc(n1)C(=O)N2` [Compound 37, (7Z)-16-methyl-4,5,12,15,16,19,25-heptaazatetracyclo[19.3.1.1^2,^5.0^1^4,^1^8]hexacosa-1(24),2(26),3,7,14,17,21(25),22-octaene-13,20-dione] are 100 to 1000 nM and below 100 nM.
Regarding `Cn1cc2c(n1)C(=O)NCCCC#CCn1cc(cn1)-c1cccc(n1)C(=O)N2` [Compound 38, 16-methyl-4,5,12,15,16,19,25-heptaazatetracyclo[19.3.1.1^2,^5.0^1^4,^1^8]hexacosa-1(24),2(26),3,14,17,21 (25),22-heptaen-7-yne-13,20-dione], the IC50 in series [1] (setting [3]) and in series [2] was below 100 nM in each case.
